According to ChEMBL document CHEMBL4270597, “Donepezil-butylated hydroxytoluene (BHT) hybrids as Anti-Alzheimer's disease agents with cholinergic, antioxidant, and neuroprotective properties” (Eur J Med Chem, 2018):
Calls of active or inactive are those of the source. The rule behind the calls is not given here.

Legend:
BV-2 [1] = assay: Inhibition of LPS-induced intracellular ROS production in mouse BV2 cells assessed as mean fluorescence intensity at 20 uM incubated with LPS for 18 hrs followed by compound addition measured after 36 hrs by DCFH-DA probe based flow cytometry (reference value: 493530); type: functional
PC-12 [2] = assay: Neuroprotective activity against H2O2-induced apoptosis in rat PC12 cells assessed as early apoptotic cells at 5 uM after 24 hrs by Annexin V-FITC/propidium iodide staining-based flow cytometry (reference value: 1.4%); type: functional
Mus musculus [3] = assay: Reversal of scopolamine-induced memory impairment in ICR mouse assessed as increase in step-through latency time administered orally for 10 consecutive days and 60 mins prior to training trial followed by scopolamine challenge at 30 mins post dose measured 24 hrs after training trial by passive avoidance test; type: functional, organism-based
Mus musculus [4] = assay: Toxicity in ICR mouse assessed as diarrhea at 5 to 10 mg/kg, po administered for 10 consecutive days; type: organism-based; details: in vivo
[5] = Antioxidant activity assessed as ABTS radical cation scavenging activity by measuring trolox equivalent antioxidant capacity measured at 6 mins; type: functional
PC-12 [6] = assay: Neuroprotective activity against H2O2-induced apoptosis in rat PC12 cells assessed as viable cells at 5 uM after 24 hrs by Annexin V-FITC/propidium iodide staining-based flow cytometry (reference value: 68.4%); type: functional; details: PC-12, 24 h, read-out: Activity
[7] = target: Cholinesterase (Equus caballus) (UniProt P81908); assay: Inhibition of equine serum BuChE at 100 uM using butyrylthiocholine iodide as substrate incubated for 5 mins followed by substrate addition measured after 180 secs by Ellman's method relative to control
Sequence of Cholinesterase (Equus caballus) (P81908 whole entry): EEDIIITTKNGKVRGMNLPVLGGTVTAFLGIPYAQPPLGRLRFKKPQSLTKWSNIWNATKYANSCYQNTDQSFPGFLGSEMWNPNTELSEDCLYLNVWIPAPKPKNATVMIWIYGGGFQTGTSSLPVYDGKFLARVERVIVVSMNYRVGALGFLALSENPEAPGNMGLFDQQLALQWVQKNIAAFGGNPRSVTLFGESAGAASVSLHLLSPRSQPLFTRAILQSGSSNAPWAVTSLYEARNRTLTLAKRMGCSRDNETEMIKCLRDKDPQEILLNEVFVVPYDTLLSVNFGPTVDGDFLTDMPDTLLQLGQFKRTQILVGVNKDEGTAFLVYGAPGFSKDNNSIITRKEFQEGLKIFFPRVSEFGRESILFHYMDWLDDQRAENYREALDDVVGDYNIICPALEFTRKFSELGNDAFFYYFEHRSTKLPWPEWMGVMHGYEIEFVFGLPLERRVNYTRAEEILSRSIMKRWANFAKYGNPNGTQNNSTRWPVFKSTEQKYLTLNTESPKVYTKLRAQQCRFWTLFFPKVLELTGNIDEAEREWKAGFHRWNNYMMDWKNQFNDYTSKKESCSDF

[8] = target: T1, Amine oxidase [flavin-containing] B (Homo sapiens, UniProt P27338); assay: Inhibition of human MAO-B using p-tyramine as substrate incubated for 15 mins followed by substrate addition measured for 20 mins by fluorescence assay
T1 sequence (P27338 whole entry): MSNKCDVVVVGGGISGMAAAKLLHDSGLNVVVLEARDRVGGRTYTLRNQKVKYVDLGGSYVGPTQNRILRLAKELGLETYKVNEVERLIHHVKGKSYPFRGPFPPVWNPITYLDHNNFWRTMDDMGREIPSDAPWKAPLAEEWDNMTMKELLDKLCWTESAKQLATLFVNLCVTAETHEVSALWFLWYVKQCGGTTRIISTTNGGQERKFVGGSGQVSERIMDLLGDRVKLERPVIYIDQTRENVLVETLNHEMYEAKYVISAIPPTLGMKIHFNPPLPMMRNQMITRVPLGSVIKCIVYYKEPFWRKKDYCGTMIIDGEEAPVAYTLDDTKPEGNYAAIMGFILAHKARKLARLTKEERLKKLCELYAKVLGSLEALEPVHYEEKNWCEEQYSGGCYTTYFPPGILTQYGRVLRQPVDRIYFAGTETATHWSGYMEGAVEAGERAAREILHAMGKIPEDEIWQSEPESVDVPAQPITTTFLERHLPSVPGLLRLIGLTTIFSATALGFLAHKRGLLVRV

Mus musculus [9] = assay: Toxicity in ICR mouse assessed as mouse survival at 5 to 10 mg/kg, po administered for 10 consecutive days; type: organism-based; details: in vivo
Mus musculus [10] = assay: Acute toxicity in mouse assessed as abnormal changes in brain at 2000 mg/kg, po measured continuously for first 4 hrs and intermittently for next 24 hrs and occasionally for 14 days by hematoxylin and eosin staining based microscopic method; type: organism-based; details: in vivo
Cholinesterase = Cholinesterase (Homo sapiens, UniProt P06276); assay: Inhibition of human serum BuChE at 100 uM using butyrylthiocholine iodide as substrate incubated for 5 mins followed by substrate addition measured after 180 secs by Ellman's method relative to control
Sequence of Cholinesterase (P06276 whole entry): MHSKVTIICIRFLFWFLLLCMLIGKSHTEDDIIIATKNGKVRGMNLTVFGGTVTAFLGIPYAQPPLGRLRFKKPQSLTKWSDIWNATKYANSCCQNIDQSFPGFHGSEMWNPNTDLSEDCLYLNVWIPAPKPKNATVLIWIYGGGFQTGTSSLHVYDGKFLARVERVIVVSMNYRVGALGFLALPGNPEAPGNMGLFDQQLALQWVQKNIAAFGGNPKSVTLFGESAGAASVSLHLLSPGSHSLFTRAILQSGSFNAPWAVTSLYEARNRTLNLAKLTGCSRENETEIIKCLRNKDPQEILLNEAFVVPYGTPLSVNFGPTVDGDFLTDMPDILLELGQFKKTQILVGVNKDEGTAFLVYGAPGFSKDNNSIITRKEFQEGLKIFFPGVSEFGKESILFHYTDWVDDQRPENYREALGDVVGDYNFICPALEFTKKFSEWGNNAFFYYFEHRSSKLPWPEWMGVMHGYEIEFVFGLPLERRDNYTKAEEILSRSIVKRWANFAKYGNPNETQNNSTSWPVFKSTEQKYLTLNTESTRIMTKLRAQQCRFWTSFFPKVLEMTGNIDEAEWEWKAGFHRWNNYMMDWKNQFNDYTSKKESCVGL

Mus musculus [11] = assay: Acute toxicity in mouse assessed as abnormal changes in water or food consumption at 677 to 2000 mg/kg, po measured continuously for first 4 hrs and intermittently for next 24 hrs and occasionally for 14 days; type: organism-based; details: in vivo
Mus musculus [12] = assay: Toxicity in ICR mouse assessed as emesis at 5 to 10 mg/kg, po administered for 10 consecutive days; type: organism-based; details: in vivo
PC-12 [13] = assay: Neuroprotective activity against H2O2-induced apoptosis in rat PC12 cells assessed as late apoptotic cells at 2.5 uM after 24 hrs by Annexin V-FITC/propidium iodide staining-based flow cytometry (reference value: 25.3%); type: functional
PC-12 [14] = assay: Neuroprotective activity against H2O2-induced oxidative stress in rat PC12 cells assessed as increase in cell viability pretreated for 4 hrs followed by H2O2 challenge measured after 24 hrs by MTT assay; type: functional, cell-based
Mus musculus [15] = assay: Acute toxicity in mouse assessed as abnormal changes in liver at 2000 mg/kg, po measured continuously for first 4 hrs and intermittently for next 24 hrs and occasionally for 14 days by hematoxylin and eosin staining based microscopic method; type: organism-based; details: in vivo
PC-12 [16] = assay: Neuroprotective activity against H2O2-induced apoptosis in rat PC12 cells assessed as early apoptotic cells at 2.5 uM after 24 hrs by Annexin V-FITC/propidium iodide staining-based flow cytometry (reference value: 1.4%); type: functional
Mus musculus [17] = assay: Acute toxicity in mouse assessed as abnormal changes in lung at 2000 mg/kg, po measured continuously for first 4 hrs and intermittently for next 24 hrs and occasionally for 14 days by hematoxylin and eosin staining based microscopic method; type: organism-based; details: in vivo
PC-12 [18] = assay: Neuroprotective activity against H2O2-induced apoptosis in rat PC12 cells assessed as necrotic cells at 2.5 uM after 24 hrs by Annexin V-FITC/propidium iodide staining-based flow cytometry (reference value: 4.9%); type: functional
PC-12 [19] = assay: Cytotoxicity against rat PC12 cells assessed as decrease in cell viability at 20 uM after 24 hrs by MTT assay; type: cell-based; details: pc-12, 24 h
[20] = target: Amyloid-beta precursor protein (Homo sapiens) (UniProt P05067); assay: Inhibition of AChE-induced amyloid beta 40 (unknown origin) aggregation at 100 uM by thioflavin-T fluorescence assay relative to control
Sequence of Amyloid-beta precursor protein (Homo sapiens) (P05067 whole entry): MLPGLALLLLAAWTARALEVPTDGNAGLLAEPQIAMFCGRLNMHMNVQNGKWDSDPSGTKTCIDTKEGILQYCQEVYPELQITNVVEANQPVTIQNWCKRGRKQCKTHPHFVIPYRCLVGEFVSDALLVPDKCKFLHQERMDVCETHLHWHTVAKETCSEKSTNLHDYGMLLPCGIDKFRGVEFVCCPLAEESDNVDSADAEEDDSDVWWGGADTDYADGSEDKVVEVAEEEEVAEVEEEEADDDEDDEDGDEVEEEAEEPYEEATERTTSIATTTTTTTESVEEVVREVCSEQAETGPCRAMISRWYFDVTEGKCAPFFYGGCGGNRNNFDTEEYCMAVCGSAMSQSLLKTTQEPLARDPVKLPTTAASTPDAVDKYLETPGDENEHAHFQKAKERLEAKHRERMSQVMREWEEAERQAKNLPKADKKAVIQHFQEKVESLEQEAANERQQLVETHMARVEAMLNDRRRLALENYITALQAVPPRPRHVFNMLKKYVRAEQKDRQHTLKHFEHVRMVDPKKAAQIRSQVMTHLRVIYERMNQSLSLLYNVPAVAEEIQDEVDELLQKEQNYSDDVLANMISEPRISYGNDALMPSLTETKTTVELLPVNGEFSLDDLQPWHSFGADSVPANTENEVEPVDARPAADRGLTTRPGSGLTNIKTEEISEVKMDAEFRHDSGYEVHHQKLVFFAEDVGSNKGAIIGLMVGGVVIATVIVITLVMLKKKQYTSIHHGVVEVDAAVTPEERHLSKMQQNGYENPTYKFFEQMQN

PC-12 [21] = assay: Reversal of H2O2-induced calcium overload in rat PC12 cells after 48 hrs by Fluo-3/AM probe based flow cytometry; type: functional, cell-based
Mus musculus [22] = assay: Acute toxicity in mouse assessed as abnormal changes in kidney at 2000 mg/kg, po measured continuously for first 4 hrs and intermittently for next 24 hrs and occasionally for 14 days by hematoxylin and eosin staining based microscopic method; type: organism-based; details: in vivo
BV-2 [23] = assay: Inhibition of LPS-induced intracellular ROS production in mouse BV2 cells assessed as mean fluorescence intensity at 10 uM incubated with LPS for 18 hrs followed by compound addition measured after 36 hrs by DCFH-DA probe based flow cytometry (reference value: 493530); type: functional
PC-12 [24] = assay: Neuroprotective activity against H2O2-induced apoptosis in rat PC12 cells assessed as necrotic cells at 10 uM after 24 hrs by Annexin V-FITC/propidium iodide staining-based flow cytometry (reference value: 4.9%); type: functional
[25] = Antioxidant activity assessed as DPPH radical scavenging activity measured after 30 mins incubation in dark by UV-Visible spectrophotometric analysis; type: functional
PC-12 [26] = assay: Neuroprotective activity against H2O2-induced apoptosis in rat PC12 cells assessed as viable cells at 2.5 uM after 24 hrs by Annexin V-FITC/propidium iodide staining-based flow cytometry (reference value: 68.4%); type: functional; details: PC-12, 24 h, read-out: Activity
[27] = Half life in Sprague-Dawley rat liver microsomes in presence of NADPH by UPLC/MS analysis; details: liver microsomes
BV-2 [28] = assay: Antineuroinflammatory activity in mouse BV2 cells assessed as inhibition of LPS-induced NO production at 10 to 30 uM after 24 hrs by Griess assay; type: functional, cell-based

SMILES: CC(C)(C)c1cc(/C=C/C(=O)NCCC2CCN(Cc3ccccc3F)CC2)cc(C(C)(C)C)c1O
- Flu intensity (BV-2 [1]): 310450
- Activity (PC-12 [2]): 0.3%
- Activity (Mus musculus [3]): Dose-dependent effect
- Activity (Mus musculus [4]): Non-Toxic
- Activity (mmolequiv/mmol) [5]: 0.82
- viability at 5 µM (PC-12 [6]): 88.3%
- inhibition [7]: 48%
- IC50 [8]: 7.4 µM
- Activity (Mus musculus [9]): Non-Toxic
- Activity (Mus musculus [10]): Non-Toxic
- inhibition (Cholinesterase): 38.4%
- Activity (Mus musculus [11]): Non-Toxic
- Activity (Mus musculus [12]): Non-Toxic
- Activity (PC-12 [13]): 14.8%
- Activity (PC-12 [14]): Dose-dependent effect
- Activity (Mus musculus [15]): Non-Toxic
- Activity (PC-12 [16]): 0.2%
- Activity (Mus musculus [17]): Non-Toxic
- Activity (PC-12 [18]): 3.5%
- Activity (PC-12 [19]): Non-Toxic
- inhibition [20]: 40.1%
- Activity (PC-12 [21]): Dose-dependent effect
- Activity (Mus musculus [22]): Non-Toxic
- Flu intensity (BV-2 [23]): 390948
- Activity (PC-12 [24]): 1.6%
- IC50 [25]: 55.9 µM
- viability at 2.5 µM (PC-12 [26]): 81.5%
- half-life [27]: 1.49 h
- inhibition (BV-2 [28]): Active
